The source of these data is US10292390B2, “Inhibition and dispersion of bacterial biofilms with 2-aminobenzimidazole derivatives” (WISCONSIN ALUMNI RESEARCH FOUNDATION, priority 2011, dated 2019).

One data set relates to P. aeruginosa biofilm. Put plainly: effects of metals on biofilm inhibition. The following applies: compound at 250 μM; Cu(II)SO4, Fe(II)SO4, Fe(III)Cl3, Zn(II)SO4 up to 1000 μM; 24 h. The format is cell-based, Pseudomonas aeruginosa. How it is done: Microtiter plates were first prepared by adding 50 μL aliquots of a 1 mM EtOH stock solution of 7 to each well in order to effect a final well concentration upon inoculum addition of 250 μM; this concentration was chosen as it is approximately the minimum concentration of 7 showing maximal biofilm inhibition. The EtOH was then removed by drying at 37° C., and the plates were sterilized. Directly prior to inoculation, 100 mM stock solutions of metals were freshly prepared in 18 MΩ H2O and diluted in series in a polypropylene 96-well microtiter plate (Costar 3879) to achieve stocks with the following concentrations: 100, 75, 50, 25, 12.5, 6.25, 1.25, 0.25, 0.05, and 0 mM. The choice of metals for evaluation was based on the results of the UV-Vis studies and included Cu(II)SO4, Fe(II)SO4.7H2O, Fe(III)Cl3.6H2O, and Zn(II)SO4.7H2O. Using a 10 μL multi-channel pipette, 2 μL aliquots of the metal stock solutions were added to the side of wells, avoiding contact with dried 7 on the bottom of the well. […] The highest metal:7 ratio obtained was 4:1 (1000 μM metal to 250 μM 7), which was assumed to be sufficient to see any mitigating effect based on our UV-Vis studies. […] All samples were tested in replicates of 3 wells and were assessed for biofilm production after 24 h incubation by CV staining and quantification.

The nature of data set [1]: UV-Vis metal binding studies. The format is physicochemical. Particulars: compound:metal ratios of approximately 1:1; preliminary.
The subject of the next data set is P. aeruginosa growth. Put plainly: bacterial growth over time (OD600). The class given is cell-based, Pseudomonas aeruginosa. Particulars: prior to 12 h; at concentrations as low as 10 μM; diminish by 12 h. On the procedure: The effects of compounds 7 and 21 on P. aeruginosa growth were evaluated by monitoring the OD600 as a function of time. Microtiter plates were prepared similar to biofilm dose-response analyses such that final well concentrations upon inoculum addition ranged from 10^x μM where x=3.5, 3, 2.5, 2, 1.5, 1, 0, −1, or −2. Compounds 7 and 21 were tested in replicates of 3 wells, and the OD600 was measured every 1-2 h for 24 h.

“Also recorded” adds a separate entry of the source.

On to `Nc1nc2ccccc2[nH]1` [Compound 7, 2-aminobenzimidazole], for which the “mitigating effect of metals on biofilm inhibitory activity” value in the data set on P. aeruginosa biofilm was “none of the tested metals were able to mitigate the biofilm inhibitory activity; also recorded: observed no change in activity”. For the same compound, in data set [1], the interaction with metals entry is on record as “able to interact with certain metals”.

Consider `Cc1cc2nc(N)[nH]c2cc1C` [Compound 21, 5,6-Dimethyl-2-aminobenzimidazole], for which the “growth inhibition versus positive control” value with P. aeruginosa growth is listed as “greater than 20%”.
